Assay results: patent US20260306644A1, “ANTIBODY RECRUITING MOLECULES FOR THE TREATMENT OF CORONAVIRUS DISEASE-19” (priority 2023, published 2026)
pEC50, pIC50: −log10 of the molar value. “And” between values parts separate entries of the source, which are not always exact repeats. Identical values can stand only once. Positions of bridges follow the written chain, without caps; N, C: chain ends. Non-standard residues stand in square brackets, D forms with d. No end group written: not given here. Tic = O=C(O)[C@@H]1Cc2ccccc2CN1; Aib = CC(C)(N)C(=O)O

How the values were obtained:
[1] = target: SARS-CoV-2 Spike protein (Severe acute respiratory syndrome coronavirus 2, UniProt P0DTC2); assay: Ternary binding of SARS-CoV-2 Spike protein (293T cells expressing Spike-GFP, IgG-AF647, flow cytometry); format: cell-based; conditions: 293T cells expressing Spike-GFP; IgG-AF647 10 μg/ml; repeat values/batches listed separately; read-out: SARS-CoV-2 Ternary binding EC50
Experimental: 293T cells stably expressing SARS-CoV-2 Spike-GFP protein on their surface were incubated with a concentration range of compound for 30 minutes at 37° C.-5% CO2 in Roswell Park Memorial Institute Medium (RPMI)-5% low IgG serum with 10 μg/ml IgG-Alexa Fluor® 647 (AF647). The cells were washed twice using the same medium, resuspended in phosphate-buffered saline (PBS)-1% bovine serum albumin (BSA), and acquired on Attune™ NxT Flow Cytometer. In some embodiments, mean fluorescence intensity of AF647 as well as […] AF647 positive in GFP positive gate are reported as readouts in this assay.

[2] = target: T1, SARS-CoV-2 Spike A (wild-type) (Severe acute respiratory syndrome coronavirus 2, UniProt P0DTC2); assay: MSD ACE2 competition assay (inhibition of Spike binding with ACE2, ECL), A (wild-type); conditions: IC50 Wild Type, Wild Type Spike
T1 construct: purchased Meso Scale Diagnostics, LLC V-PLEX SARS-CoV-2 Panel 13 (ACE2) Kit / Panel 23 (ACE2) Kit

Row | Compound | pEC50 [1] | pIC50 [2]
1 | CC[C@H](C)[C@H](NC(=O)[C@H](Cc1c[nH]c2ccccc12)NC(=O)[C@H](CCC(=O)O)NC(=O)[C@H](CCCCN)NC(=O)[C@H](CC(=O)O)NC(C)=O)C(=O)N[C@@H](CC(C)C)C(=O)N[C@@H](CCC(N)=O)C(=O)N[C@@H](CCCCN)C(=O)N[C@H](C(=O)N[C@@H](Cc1ccc(O)cc1)C(=O)N[C@@H](CCC(=O)O)C(=O)N[C@H](C(=O)N[C@@H](CCSC)C(=O)N[C@@H](CCCNC(=N)N)C(=O)N[C@@H](CC(C)C)C(=O)N[C@@H](CC(C)C)C(=O)N[C@@H](CC(=O)O)C(=O)N[C@@H](CCC(=O)O)C(=O)N[C@@H](CC(C)C)C(=O)NCC(=O)NCCOCCOCCOCCOCCOCCOCCOCCOCCC(=O)NCCOCCOCCOCCOCCOCCOCCOCCOCCC(=O)N[C@@H](CC(=O)O)C(=O)N[C@H]1CSSC[C@@H](C(=O)N[C@H](C(N)=O)[C@@H](C)O)NC(=O)[C@H](Cc2c[nH]c3ccccc23)NC(=O)[C@H](C(C)C)NC(=O)[C@H](CC(C)C)NC(=O)[C@H](CCC(=O)O)NC(=O)CNC(=O)[C@H](CC(C)C)NC(=O)[C@H](Cc2c[nH]cn2)NC(=O)[C@H](Cc2c[nH]c3ccccc23)NC(=O)[C@H](C)NC1=O)[C@@H](C)CC)[C@@H](C)CC [Compound 151] | < 8.00 | 
2 | CC[C@H](C)[C@H](NC(=O)[C@H](Cc1c[nH]c2ccccc12)NC(=O)[C@H](CCC(=O)O)NC(=O)[C@H](CCCCN)NC(=O)[C@H](CC(=O)O)NC(C)=O)C(=O)N[C@@H](CC(C)C)C(=O)N[C@@H](CCC(N)=O)C(=O)N[C@@H](CCCCN)C(=O)N[C@H](C(=O)N[C@@H](Cc1ccc(O)cc1)C(=O)N[C@@H](CCC(=O)O)C(=O)N[C@H](C(=O)N[C@@H](CCSC)C(=O)N[C@@H](CCCNC(=N)N)C(=O)N[C@@H](CC(C)C)C(=O)N[C@@H](CC(C)C)C(=O)N[C@@H](CC(=O)O)C(=O)N[C@@H](CCC(=O)O)C(=O)N[C@@H](CC(C)C)C(=O)NCC(=O)N[C@@H](Cc1c[nH]cn1)C(=O)N[C@@H](C)C(=O)N[C@@H](CCC(=O)O)C(=O)N[C@@H](C)C(=O)N[C@@H](CO)C(=O)NCCOCCOCCOCCOCCOCCOCCOCCOCCC(=O)NCCOCCOCCOCCOCCOCCOCCOCCOCCC(=O)N[C@@H](CC(=O)O)C(=O)N[C@H]1CSSC[C@@H](C(=O)N[C@H](C(N)=O)[C@@H](C)O)NC(=O)[C@H](Cc2c[nH]c3ccccc23)NC(=O)[C@H](C(C)C)NC(=O)[C@H](CC(C)C)NC(=O)[C@H](CCC(=O)O)NC(=O)CNC(=O)[C@H](CC(C)C)NC(=O)[C@H](Cc2c[nH]cn2)NC(=O)[C@H](Cc2c[nH]c3ccccc23)NC(=O)[C@H](C)NC1=O)[C@@H](C)CC)[C@@H](C)CC [Compound 152] | < 7.00 | 
3 | CC[C@H](C)[C@H](NC(=O)[C@H](Cc1c[nH]c2ccccc12)NC(=O)[C@H](CCC(=O)O)NC(=O)[C@H](CCCCN)NC(=O)[C@H](CC(=O)O)NC(C)=O)C(=O)N[C@@H](CC(C)C)C(=O)N[C@@H](CCC(N)=O)C(=O)N[C@@H](CCCCN)C(=O)N[C@H](C(=O)N[C@@H](Cc1ccc(O)cc1)C(=O)N[C@@H](CCC(=O)O)C(=O)N[C@H](C(=O)N[C@@H](CCSC)C(=O)N[C@@H](CCCNC(=N)N)C(=O)N[C@@H](CC(C)C)C(=O)N[C@@H](CC(C)C)C(=O)N[C@@H](CC(=O)O)C(=O)N[C@@H](CCC(=O)O)C(=O)N[C@@H](CC(C)C)C(=O)NCC(=O)N[C@@H](Cc1c[nH]cn1)C(=O)N[C@@H](C)C(=O)N[C@@H](CCC(=O)O)C(=O)N[C@@H](C)C(=O)N[C@@H](CO)C(=O)N[C@@H](CCSC)C(=O)N[C@@H](CCCNC(=N)N)C(=O)N[C@H](C(=O)N[C@@H](CO)C(=O)NCCOCCOCCOCCOCCOCCOCCOCCOCCC(=O)NCCOCCOCCOCCOCCOCCOCCOCCOCCC(=O)N[C@@H](CC(=O)O)C(=O)N[C@H]1CSSC[C@@H](C(=O)N[C@H](C(N)=O)[C@@H](C)O)NC(=O)[C@H](Cc2c[nH]c3ccccc23)NC(=O)[C@H](C(C)C)NC(=O)[C@H](CC(C)C)NC(=O)[C@H](CCC(=O)O)NC(=O)CNC(=O)[C@H](CC(C)C)NC(=O)[C@H](Cc2c[nH]cn2)NC(=O)[C@H](Cc2c[nH]c3ccccc23)NC(=O)[C@H](C)NC1=O)C(C)C)[C@@H](C)CC)[C@@H](C)CC [Compound 153] | < 8.00 | 
4 | CC[C@H](C)[C@H](NC(=O)[C@H](CC(C)C)NC(=O)[C@H](CC(=O)O)NC(=O)[C@H](CO)NC(=O)[C@@H](NC(=O)[C@H](CCCNC(=N)N)NC(=O)[C@H](CCSC)NC(=O)[C@H](CO)NC(=O)[C@H](C)NC(=O)[C@H](CCC(=O)O)NC(=O)[C@H](C)NC(=O)[C@H](Cc1c[nH]cn1)NC(=O)CNC(=O)[C@H](CC(C)C)NC(=O)[C@H](CCC(=O)O)NC(=O)[C@H](CC(=O)O)NC(=O)[C@H](CC(C)C)NC(=O)[C@H](CC(C)C)NC(=O)[C@H](CCCNC(=N)N)NC(=O)[C@H](CCSC)NC(=O)[C@@H](NC(=O)[C@H](CCC(=O)O)NC(=O)[C@H](Cc1ccc(O)cc1)NC(=O)[C@@H](NC(=O)[C@H](CCCCN)NC(=O)[C@H](CCC(N)=O)NC(=O)[C@H](CC(C)C)NC(=O)[C@@H](NC(=O)[C@H](Cc1c[nH]c2ccccc12)NC(=O)[C@H](CCC(=O)O)NC(=O)[C@H](CCCCN)NC(=O)[C@H](CC(=O)O)NC(C)=O)[C@@H](C)CC)[C@@H](C)CC)[C@@H](C)CC)C(C)C)C(=O)N[C@@H](Cc1ccc(O)cc1)C(=O)N[C@@H](CCC(=O)O)C(=O)NCCOCCOCCOCCOCCOCCOCCOCCOCCC(=O)NCCOCCOCCOCCOCCOCCOCCOCCOCCC(=O)N[C@@H](CC(=O)O)C(=O)N[C@H]1CSSC[C@@H](C(=O)N[C@H](C(N)=O)[C@@H](C)O)NC(=O)[C@H](Cc2c[nH]c3ccccc23)NC(=O)[C@H](C(C)C)NC(=O)[C@H](CC(C)C)NC(=O)[C@H](CCC(=O)O)NC(=O)CNC(=O)[C@H](CC(C)C)NC(=O)[C@H](Cc2c[nH]cn2)NC(=O)[C@H](Cc2c[nH]c3ccccc23)NC(=O)[C@H](C)NC1=O [Compound 154] | < 7.00 | 
5 | CC[C@H](C)[C@H](NC(C)=O)C(=O)N[C@@H](Cc1ccc(O)cc1)C(=O)N[C@@H](CCC(=O)O)C(=O)N[C@H](C(=O)N[C@@H](CCSC)C(=O)N[C@@H](CCCNC(=N)N)C(=O)N[C@@H](CC(C)C)C(=O)N[C@@H](CC(C)C)C(=O)N[C@@H](CC(=O)O)C(=O)N[C@@H](CCC(=O)O)C(=O)N[C@@H](CC(C)C)C(=O)NCC(=O)N[C@@H](Cc1c[nH]cn1)C(=O)N[C@@H](C)C(=O)N[C@@H](CCC(=O)O)C(=O)N[C@@H](C)C(=O)N[C@@H](CO)C(=O)N[C@@H](CCSC)C(=O)N[C@@H](CCCNC(=N)N)C(=O)N[C@H](C(=O)N[C@@H](CO)C(=O)N[C@@H](CC(=O)O)C(=O)N[C@@H](CC(C)C)C(=O)N[C@H](C(=O)N[C@@H](Cc1ccc(O)cc1)C(=O)N[C@@H](CCC(=O)O)C(=O)N[C@@H](Cc1ccccc1)C(=O)N[C@@H](CCSC)C(=O)N[C@@H](CCCCN)C(=O)N[C@@H](CCCCN)C(=O)NCC(=O)NCCOCCOCCOCCOCCOCCOCCOCCOCCC(=O)NCCOCCOCCOCCOCCOCCOCCOCCOCCC(=O)N[C@@H](CC(=O)O)C(=O)N[C@H]1CSSC[C@@H](C(=O)N[C@H](C(N)=O)[C@@H](C)O)NC(=O)[C@H](Cc2c[nH]c3ccccc23)NC(=O)[C@H](C(C)C)NC(=O)[C@H](CC(C)C)NC(=O)[C@H](CCC(=O)O)NC(=O)CNC(=O)[C@H](CC(C)C)NC(=O)[C@H](Cc2c[nH]cn2)NC(=O)[C@H](Cc2c[nH]c3ccccc23)NC(=O)[C@H](C)NC1=O)[C@@H](C)CC)C(C)C)[C@@H](C)CC [Compound 156] | < 7.00 | 
6 | CC[C@H](C)[C@H](NC(=O)[C@H](CC(C)C)NC(=O)[C@H](CC(=O)O)NC(=O)[C@H](CO)NC(=O)[C@@H](NC(=O)[C@H](CCCNC(=N)N)NC(=O)[C@H](CCSC)NC(=O)[C@H](CO)NC(=O)[C@H](C)NC(=O)[C@H](CCC(=O)O)NC(=O)[C@H](C)NC(=O)[C@H](Cc1c[nH]cn1)NC(=O)CNC(=O)[C@H](CC(C)C)NC(=O)[C@H](CCC(=O)O)NC(=O)[C@H](CC(=O)O)NC(=O)[C@H](CC(C)C)NC(=O)[C@H](CC(C)C)NC(=O)[C@H](CCCNC(=N)N)NC(=O)[C@H](CCSC)NC(=O)[C@@H](NC(=O)[C@H](CCC(=O)O)NC(=O)[C@H](Cc1ccc(O)cc1)NC(=O)[C@@H](NC(=O)[C@H](CCCCN)NC(=O)[C@H](CCC(N)=O)NC(=O)[C@H](CC(C)C)NC(=O)[C@@H](NC(=O)[C@H](Cc1c[nH]c2ccccc12)NC(=O)[C@H](CCC(=O)O)NC(=O)[C@H](CCCCN)NC(=O)[C@H](CC(=O)O)NC(C)=O)[C@@H](C)CC)[C@@H](C)CC)[C@@H](C)CC)C(C)C)C(=O)N[C@@H](Cc1ccc(O)cc1)C(=O)N[C@@H](CCC(=O)O)C(=O)N[C@@H](Cc1ccccc1)C(=O)N[C@@H](CCSC)C(=O)N[C@@H](CCCCN)C(=O)N[C@@H](CCCCN)C(=O)NCC(=O)NCCOCCNC(=O)[C@@H]1CSCC(=O)N[C@@H](C)C(=O)N[C@@H](CO)C(=O)N[C@@H](Cc2ccc(O)cc2)C(=O)N[C@@H](Cc2c[nH]cn2)C(=O)N[C@@H](CC(C)C)C(=O)NCC(=O)N[C@@H](CCC(=O)O)C(=O)N[C@@H](CC(C)C)C(=O)N[C@@H](C(C)C)C(=O)N[C@@H](Cc2c[nH]c3ccccc23)C(=O)N2Cc3ccccc3C[C@H]2C(=O)NC(C)(C)C(=O)N1 [Compound 159] | 8.52 and 8.55 | 
7 | {CH2CO}-ASYHLGELVW[Tic][Aib]C[dE]ILQKIYEIMRLLDELGHAEASMRVSDLIYEFMKK (thioether N-13) [Compound 131] |  | 7.50
